Measured values: patent US6436911B1, “IL-12 production inhibitor” (Seikagaku Corporation, priority 1999, dated 2002)

Experiments:
[1] = test system: peritoneal macrophages isolated from C3H/HeN mice; assay: IL-12 production in peritoneal macrophages from C3H/HeN mice (LPS + IFN-γ); type: cell-based; settings: LPS 200 ng/ml, IFN-γ 2 U/ml, 24 hours, various L3 concentrations (FIG. 14)
Procedure: Ice-cooled phosphate buffered saline (PBS) was injected into abdominal cavities of C3H/HeN mice. After the abdomen of each mouse was massaged, the PBS was collected and centrifuged to obtain macrophages. A cell suspension was prepared by suspending the obtained macrophages in RPMI1640 medium (Sigma) containing 200 ng/ml of LPS, 2 U/ml of recombinant mouse interferon-γ (IFN-γ) and 10% fetal bovine serum at a concentration of 1×10^6 cells/ml. 100 μl of the cell suspension was dispensed on a 96-well flat-bottom plate and further 100 μl of L3 solution of which concentration was adjusted to be twice the final concentration in the RPMI1640 medium was added thereto. Then, the cells were cultured at 37° C. in the presence of 5% CO2 for 24 hours.
(§1) Subsequently, the plate was centrifuged to collect the culture supernatant. The IL-12 concentration in the supernatant was measured as described above.

IL-12 = assay: Plasma IL-12 level (IL-12 p70 ELISA) in MRL-lpr/lpr mice after administration; type: in vivo; settings: day before autopsy
From the text: Plasma IL-12 levels were examined using MRL-lpr/lpr mice treated with and without L4. Macrophages from MRL-lpr/lpr mice are known to markedly produce IL-12 and their serum IL-12 level is high (J. Exp. Med., 183, pp. 1447-1459 (1996)).
(§2) MRL lpr/lpr mice, C57BL/6 mice and ICR mice as normal controls were purchased from Japan Charles River Co., Ltd. and preliminarily maintained for several weeks before divided into groups. Blood was collected from the orbital venous plexus, and they were allocated according to the plasma creatinine level (CRE) as a first marker so that there would be no difference in the average value and the standard deviation for the creatinine level among the groups. They were also grouped so that there would be no difference in the plasma nitrogen level (BUN), white blood cell count (WBC), platelet count (PLT) and weight between groups as far as possible.
The test substances were administered from the next day of the grouping. […]
Blood was collected from the orbital venous plexus at the time of the grouping and on the day before the autopsy. The IL-12 concentration in blood plasma was measured by using an IL-12 p70 ELISA kit (Endogen, Inc.).
(§3) The average value and the standard deviation were calculated for the measured values obtained as above and the statistical significance was analyzed by Williams' multiple comparison test. […]

MRL-lpr/lpr mice [2] = assay: Hematological test: white blood cell count (WBC) in blood of MRL-lpr/lpr mice; type: in vivo; settings: day before autopsy
From the text: as §2
The test substances were administered from the next day of the grouping. Each of the test substances was dissolved in distilled water at a predetermined concentration to prepare a solution to be administered. The solution was intermittently administered 3 times per week for 4 weeks (total 12 doses). […]
Blood was collected from the orbital venous plexus at the time of the grouping and on the day before the autopsy. The white blood cell count (WBC) was measured by using an automatic cytometer for multiple test items (Sysmex K-2000: Toa Medical Electronics).
as §3

MRL-lpr/lpr mice [3] = assay: Biochemical blood test: plasma creatinine (CRE) and urea nitrogen (BUN) in MRL-lpr/lpr mice; type: in vivo; settings: Example 3; L4 3.2 mg/kg i.n.; 6 weeks; day before autopsy (FIG. 4)
Procedure: 9-Week old MRL lpr/lpr mice, C57BL/6 mice and ICR mice were purchased from Japan Charles River Co., Ltd. and preliminarily maintained for 6 weeks before divided into groups. The groups used were as follows.
Each of the test substance was dissolved in distilled water at a predetermined concentration to prepare a solution to be administered. The solution was intermittently administered 3 times per week for 6 weeks (total […]). Observation was performed for 45 days from the start of administration through the autopsy. Other conditions and methods were the same as those of Example 2.
Blood was collected from the orbital venous plexus and plasma creatinine level (CRE) and plasma urea nitrogen level (BUN) were measured by using an automatic analyzer for clinical chemistry (COBAS MIRA S: Nippon Roche) at the time of the grouping and on the day before the autopsy.

[4] = test system: peritoneal macrophages isolated from MRL mice; assay: LPS-stimulated IL-12 p70 production in peritoneal macrophages from MRL lpr/lpr mice; type: cell-based; settings: for IL-12 p70 production, simultaneous treatment with LPS and test substance: LPS 100 ng/ml, various concentrations, 8-week-old and 39-week-old MRL mice (FIG. 6; L4L4 FIG. 12)
Procedure: Five to seven milliliters of ice-cooled Hank's balanced salt solution was injected in the abdominal cavities of 8- to 39-week-old MRL lpr/lpr mice and extracted 5 minutes later to collect resident peritoneal cells. The collected cells were cultured overnight in RPMI medium contained in a 96-well flat-bottom plate at 37° C. in the presence of 5% CO2. After the cultivation, non-adherent cells were removed and adherent cells were used as peritoneal macrophages for the experiment.
The cells were treated with lipopolysaccharide (LPS, List Biological Laboratories, Inc.) for 24 hours to stimulate IL-12 production. The concentration of IL-12 p70 in the cell culture supernatant was measured by using an IL-12 p70 ELISA kit (Endogen, Inc.) to evaluate the IL-12 production. As for the measured values, the average value and the standard deviation were obtained. Unless otherwise mentioned, the statistical significance was examined by the Williams' multiple comparison test.
The stimulation was performed for 24 hours in the medium containing LPS (100 ng/ml) and various concentrations of L4, and then the IL-12 production was evaluated.
Macrophages were treated with 100 ng/ml of LPS for 0, 2 or 6 hours, and then the medium was replaced with a fresh medium containing 1000 ng/ml of L4 or a fresh medium only (L4(-)) (consequently, IL-12 produced by the pretreatment was removed). 24 hours after the replacement of the medium, the IL-12 production was evaluated.
First, macrophages were treated with L4 at various concentrations for 24 hours and the medium was replaced with a medium containing 100 ng/ml of LPS. 24 hours after the replacement of the medium, the IL-12 production was evaluated.
The IL-12 production in the macrophages of MRL-lpr/lpr mice, pretreated with or without 1000 ng/ml of L4 for 24 hours then treated with 100 ng/ml of LPS for 24 hours (L4 pretreatment), and the treated with 100 ng/ml LPS together with or without 1000 ng/ml of L4 (simultaneous treatment), were compared. In FIG. 11, * and ** indicate that there was statistical significance at levels of p<0.05 and p<0.01, respectively, according to the Student's t-test.

[5] = test system: peritoneal macrophages isolated from C57BL/6 mice; assay: LPS-stimulated IL-12 p70 production in peritoneal macrophages from C57BL/6 mice; type: cell-based
[6] = test system: synovial cells collected from human rheumatoid arthritis patients; assay: IL-12 p70 production in synovial cells from rheumatoid arthritis patients (LPS + IFN-γ); type: cell-based; settings: LPS 500 ng/ml, IFN-γ 50 U/ml
Procedure: A cell suspension was prepared by suspending synovial cells collected from human rheumatoid arthritis patients in RPMI1640 medium (Sigma) containing 500 ng/ml of LPS, 50 U/ml of recombinant mouse interferon-γ (IFN-γ) and 10% fetal bovine serum at a concentration of 1×10^6cells/ml.
100 μl of the aforementioned cell suspension was dispensed to a 96-well flat-bottom plate and further 100 μl of L4 solution of which concentration was adjusted to be twice the final concentration in the RPMI1640 medium was added thereto. Then, the cells were cultured at 37° C. in the presence of 5% CO2 for 24 hours.
as §1

Compound	IL-12 production of macrophages [1]	IL-12 level in plasma (IL-12; Example 2, L4 1.6 mg/kg i.n. and 80 mg/kg p.o., 3 times per week for 4 weeks, p<0.05/p<0.01 (FIG. 2))	IL-12 level in plasma (IL-12; Example 3, L4 3.2 mg/kg i.n., 3 times per week for 6 weeks, p<0.01 (FIG. 5))	white blood cell count (WBC) in blood (MRL-lpr/lpr mice [2]; Example 2, low dose L4 administered groups, 3 times per week for 4 weeks, vs DW group, p<0.05 (FIG. 1))	white blood cell count (WBC) in blood (MRL-lpr/lpr mice [2]; Example 3, L4 3.2 mg/kg i.n., 3 times per week for 6 weeks, p<0.05 (FIG. 3))	plasma creatinine level (CRE) (MRL-lpr/lpr mice [3])	plasma urea nitrogen level (BUN) (MRL-lpr/lpr mice [3])	IL-12 p70 production, L4 pretreatment compared with simultaneous treatment ([4]; 1000 ng/ml L4, 100 ng/ml LPS, 24 hours (FIG. 11))	IL-12 p70 production, stimulation with LPS after pretreatment with L4, high doses ([4]; L4 100 ng/ml or more, 24 hours, then LPS 100 ng/ml 24 hours (FIG. 9))	IL-12 p70 production, stimulation with LPS after pretreatment with L4 ([4]; L4 various concentrations 24 hours, then LPS 100 ng/ml 24 hours (FIG. 9))	IL-12 p70 production, treatment with L4 after preliminary stimulation with LPS ([4]; LPS 100 ng/ml for 2 and 6 hours, then 1000 ng/ml L4, 24 hours (FIG. 8))	IL-12 p70 production, simultaneous treatment with LPS and test substance ([4]; 24 hours)	IL-12 p70 production, stimulation with LPS after pretreatment with L4 ([5]; C57BL/6 mice, pretreated with L4 for 36 hours (FIG. 10))	IL-12 p70 production, simultaneous treatment with LPS and L4 ([5]; LPS 100 ng/ml, 24 hours, various concentrations of L4, C57BL/6 mice (FIG. 7))	IL-12 production in synovial cells at 1000 ng/ml ([6]; 1000 ng/ml L4, 24 hours (FIG. 13))	IL-12 production in synovial cells ([6]; 24 hours, various L4 concentrations (FIG. 13))
CC(=O)N[C@H]1C(O)O[C@H](CO)[C@@H](O[C@@H]2O[C@H](COS(=O)(=O)O)[C@H](O)[C@H](O)[C@H]2O)[C@@H]1O (stereo partly drawn) [L3, Gal(6S)β1-4GlcNAc]	inhibited IL-12 production of macrophages in a dose-dependent manner															
CC(=O)N[C@H]1C(O)O[C@H](COS(=O)(=O)O)[C@@H](O[C@@H]2O[C@H](COS(=O)(=O)O)[C@H](O)[C@H](O)[C@H]2O)[C@@H]1O (stereo partly drawn) [L4, Gal(6S)β1-4GlcNAc(6S)]		significant inhibition of the increase in IL-12	significant inhibition of the increase in the IL-12	significant inhibition of the increase in WBC	significant inhibition of the increase in WBC	significant decrease	significant decrease	inhibits IL-12 production more efficiently compared with the simultaneous treatment	almost completely inhibited	L4 pretreatment inhibits the IL-12 production	Inhibition of the IL-12 production by L4 was also observed	dose-dependent inhibitory effect on the IL-12 production	The same results were also obtained	The same result was also obtained	almost halved	tendency that addition of L4 inhibited IL-12 production
CC(=O)NC1C(O)OC(COS(=O)(=O)[O-])C(OC2OC(COS(=O)(=O)[O-])C(O)C(OC3OC(COS(=O)(=O)[O-])C(OC4OC(COS(=O)(=O)[O-])C(O)C(O)C4O)C(O)C3NC(C)=O)C2O)C1O.[Na+].[Na+].[Na+].[Na+] [L4L4, Gal(6S)β1-4GlcNAc(6S)β1-3Gal(6S)β1-4GlcNAc(6S)]												The same result was obtained				
